In PMC10975748:

Tests used:
[1] = Excerpt: (§1) Abstract: Envenomation by snakes is a major neglected human disease even though it affects millions of people with sequelae and kills hundreds of thousands of them. A large toll is taken by snakes that inject neurotoxic venoms capable of inducing complete degeneration of motor axon terminals with rapid development of a peripheral neuroparalysis with severe respiratory deficit. The major venom component causing this degeneration are presynaptic acting PLA2s that hydrolyse phospholipids in lysophospholipids and fatty acids that induce large entry of Ca^2+ into the neuronal cytosol. This leads to the activation of endogenous hydrolases that cause a complete degeneration of the motor axon terminals, which is followed by a regeneration program, only partially known in molecular terms. We recently identified two types of membrane receptors involved in the regeneration of the paralysed neuromuscular junction (NMJ). Here we report that this paralysis activates a proregenerative molecular axis, consisting of the CXCR4 receptor expressed at the stump of degenerated motor axon terminals and by the release of its ligand CXCL12α by surrounding Schwann cells. […]
[2] = tested on: mice injected with venoms; test: Recovery from neuroparalysis in mice injected with neurotoxic snake venoms; format: in vivo
Excerpt: as §1

[3] = molecular target: T1, muscle-type α12βεδ nAChRs (Mus musculus, UniProt P02716+P04756+P20782); test: Nerve-evoked isometric contraction, block by cyclic imine toxins
T1 construct: skeletal muscle expressing α12βεδ nAChRs; from tissue; host or cells: isolated mouse phrenic-nerve-hemi-diaphragm muscle
T1 sequence (P09690 24-501): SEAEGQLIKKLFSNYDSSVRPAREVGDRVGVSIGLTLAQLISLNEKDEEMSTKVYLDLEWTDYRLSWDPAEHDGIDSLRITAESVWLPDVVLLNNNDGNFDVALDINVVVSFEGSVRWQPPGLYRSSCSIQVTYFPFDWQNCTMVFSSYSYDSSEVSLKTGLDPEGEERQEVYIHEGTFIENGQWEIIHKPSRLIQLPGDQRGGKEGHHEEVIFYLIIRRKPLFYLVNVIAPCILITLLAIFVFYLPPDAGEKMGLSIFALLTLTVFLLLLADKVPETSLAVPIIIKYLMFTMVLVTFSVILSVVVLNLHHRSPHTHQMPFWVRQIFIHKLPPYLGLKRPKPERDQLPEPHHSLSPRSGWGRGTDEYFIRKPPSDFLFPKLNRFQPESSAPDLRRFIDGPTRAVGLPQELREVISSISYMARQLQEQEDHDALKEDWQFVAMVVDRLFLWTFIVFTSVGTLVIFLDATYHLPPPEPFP
T1 sequence (P02716 25-520): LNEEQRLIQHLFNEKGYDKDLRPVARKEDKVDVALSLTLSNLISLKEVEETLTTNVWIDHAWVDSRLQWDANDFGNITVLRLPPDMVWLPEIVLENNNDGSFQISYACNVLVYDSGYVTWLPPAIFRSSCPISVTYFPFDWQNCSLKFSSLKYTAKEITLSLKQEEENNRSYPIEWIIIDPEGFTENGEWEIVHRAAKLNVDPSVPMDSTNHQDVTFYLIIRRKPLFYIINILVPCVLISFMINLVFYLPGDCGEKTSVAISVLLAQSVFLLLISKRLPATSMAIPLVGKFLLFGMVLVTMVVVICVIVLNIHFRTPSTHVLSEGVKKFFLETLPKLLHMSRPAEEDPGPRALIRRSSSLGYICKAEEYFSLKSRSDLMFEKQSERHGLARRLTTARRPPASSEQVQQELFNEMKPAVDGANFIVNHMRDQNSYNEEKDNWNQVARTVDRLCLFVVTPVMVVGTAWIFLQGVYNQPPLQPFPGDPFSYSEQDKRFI
T1 sequence (P04756 21-457): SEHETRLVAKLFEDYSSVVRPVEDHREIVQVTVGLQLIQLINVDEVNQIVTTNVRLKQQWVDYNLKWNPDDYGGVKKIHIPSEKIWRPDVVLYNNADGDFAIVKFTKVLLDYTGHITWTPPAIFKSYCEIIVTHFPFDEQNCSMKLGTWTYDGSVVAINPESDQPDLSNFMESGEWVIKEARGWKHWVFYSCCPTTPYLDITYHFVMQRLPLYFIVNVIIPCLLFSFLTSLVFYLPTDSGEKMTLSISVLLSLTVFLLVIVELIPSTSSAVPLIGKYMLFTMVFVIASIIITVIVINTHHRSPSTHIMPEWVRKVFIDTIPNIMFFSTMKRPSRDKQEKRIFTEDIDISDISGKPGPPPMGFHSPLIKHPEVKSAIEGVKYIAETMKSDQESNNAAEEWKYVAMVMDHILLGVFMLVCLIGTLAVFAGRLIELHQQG
T1 sequence (P20782 21-493): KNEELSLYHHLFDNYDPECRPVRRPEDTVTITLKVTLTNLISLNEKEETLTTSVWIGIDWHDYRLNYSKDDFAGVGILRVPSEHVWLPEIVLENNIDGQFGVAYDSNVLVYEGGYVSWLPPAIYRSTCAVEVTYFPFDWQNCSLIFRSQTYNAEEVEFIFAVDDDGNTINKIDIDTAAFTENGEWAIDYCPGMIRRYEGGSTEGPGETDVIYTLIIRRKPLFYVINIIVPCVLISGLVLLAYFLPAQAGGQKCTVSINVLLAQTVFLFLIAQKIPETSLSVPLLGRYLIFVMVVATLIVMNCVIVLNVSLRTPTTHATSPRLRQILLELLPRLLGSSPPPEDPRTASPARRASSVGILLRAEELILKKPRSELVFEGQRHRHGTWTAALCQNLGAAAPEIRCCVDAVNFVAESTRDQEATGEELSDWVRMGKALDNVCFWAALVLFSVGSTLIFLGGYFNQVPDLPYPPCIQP

[4] = tested on: isolated mouse phrenic-nerve-hemi-diaphragm muscle preparations; test: Nerve-evoked isometric contraction, reversal of CiTX neuromuscular block; conditions: 100 µM, in continuous presence of GYM-A, PnTX-A, PnTX-G or PteTX-1
[5] = analogues purified from pufferfish liver; patch clamp
[6] = tested on: anti-TTX monoclonal antibody; format: binding
[7] = tested on: serotonin, histamine, opioid and nicotinic receptors, TRP channels or voltage-gated sodium, potassium or calcium channels; test: Selectivity of OS on other receptors and channels; format: cell-based
mice = test: In vivo evaluation of OS on brain-related neurological functions
CB2 receptors = molecular target: T2, CB2 receptors (Homo sapiens, UniProt P34972); test: Two-electrode voltage-clamp, CB2 with GIRK1/2 and RGS4 in Xenopus laevis oocytes; format: cell-based; conditions: GIRK1/2, RGS4
T2 construct: expressed in transfected cells; host or cells: Xenopus laevis oocytes
T2 sequence (P34972 whole entry): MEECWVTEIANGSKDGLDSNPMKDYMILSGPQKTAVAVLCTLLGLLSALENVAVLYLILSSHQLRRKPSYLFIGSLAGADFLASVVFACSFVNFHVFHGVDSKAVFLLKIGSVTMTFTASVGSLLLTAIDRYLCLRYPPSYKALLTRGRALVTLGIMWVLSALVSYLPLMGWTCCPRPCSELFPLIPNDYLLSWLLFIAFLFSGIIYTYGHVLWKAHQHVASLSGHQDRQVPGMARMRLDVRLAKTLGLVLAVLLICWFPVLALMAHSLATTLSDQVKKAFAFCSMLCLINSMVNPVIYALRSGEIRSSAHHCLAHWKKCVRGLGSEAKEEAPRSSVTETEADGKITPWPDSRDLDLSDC
Excerpt: (§2) Abstract: Cannabinoid receptors (CB1 and CB2) are promising targets for diverse diseases, such as pain, inflammation, and neurological diseases. However, only a few ligands of CB receptors have reached clinical application so far. In the present study, we focused on the venom of Stephanoconus snails and found an endocannabinoid-like molecule, oleoyl serotonin (OS), active on CB1 and CB2. To determine the effects of OS, CB1 and CB2 receptors were functionally expressed in Xenopus laevis oocytes, together with the G protein-coupled inwardly rectifier potassium channels (GIRK1/2), and a regulator of G protein signalling (RGS4). Ion currents were measured with a two-electrode voltage-clamp system. […] To the best of our knowledge, OS is the first venom-derived ligand modulating CB receptors. […]. To investigate the critical domains of the CB receptor for OS activity, we constructed a chimeric CB1/2 receptor by replacing the transmembrane domain V (TMV)-intracellular loop 3 (ICL3)-TMVI domain (TMV-ICL3-TMVI) of the CB2 receptor with that of the CB1 receptor. […] This study highlights the potential of animal venom components as a promising library for the discovery of novel CB receptor ligands.

CB1 receptors = molecular target: T3, CB1 receptors (Homo sapiens, UniProt P21554); test: Two-electrode voltage-clamp, CB1-GIRK1/2-RGS4 system in Xenopus laevis oocytes; format: cell-based; conditions: GIRK1/2 currents induced by WIN55,212-2, Xenopus oocytes
T3 construct: expressed in transfected cells; host or cells: Xenopus laevis oocytes
T3 sequence (P21554 whole entry): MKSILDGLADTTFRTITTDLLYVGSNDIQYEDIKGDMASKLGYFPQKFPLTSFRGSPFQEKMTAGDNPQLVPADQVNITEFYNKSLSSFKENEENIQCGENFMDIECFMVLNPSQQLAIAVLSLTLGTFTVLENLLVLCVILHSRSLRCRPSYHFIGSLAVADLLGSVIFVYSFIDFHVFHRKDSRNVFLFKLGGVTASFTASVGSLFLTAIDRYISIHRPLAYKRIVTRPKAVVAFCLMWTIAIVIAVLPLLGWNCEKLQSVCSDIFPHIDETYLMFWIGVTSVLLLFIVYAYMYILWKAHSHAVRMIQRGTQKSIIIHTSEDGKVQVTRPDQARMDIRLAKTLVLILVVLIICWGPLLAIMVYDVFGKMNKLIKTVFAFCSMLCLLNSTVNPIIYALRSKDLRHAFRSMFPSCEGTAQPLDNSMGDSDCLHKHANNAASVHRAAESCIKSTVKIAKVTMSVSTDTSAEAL
Excerpt: as §2

human mitoTRPV1 = human mitoTRPV1 (Homo sapiens, UniProt Q8NER1); format: cell-based
human mitoTRPV1, sequence (Q8NER1 434-839): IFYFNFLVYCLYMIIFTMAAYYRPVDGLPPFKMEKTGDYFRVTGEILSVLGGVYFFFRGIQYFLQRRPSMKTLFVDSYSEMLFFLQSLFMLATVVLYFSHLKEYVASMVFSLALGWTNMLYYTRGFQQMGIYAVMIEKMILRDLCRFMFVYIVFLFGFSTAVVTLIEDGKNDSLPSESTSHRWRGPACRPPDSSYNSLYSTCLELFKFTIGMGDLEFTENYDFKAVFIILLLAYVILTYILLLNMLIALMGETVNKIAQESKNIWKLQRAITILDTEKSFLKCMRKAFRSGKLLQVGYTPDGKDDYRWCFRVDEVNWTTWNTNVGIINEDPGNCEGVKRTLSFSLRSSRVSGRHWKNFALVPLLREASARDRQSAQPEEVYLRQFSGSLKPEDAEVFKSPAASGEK

## CCCn1nc(C(=O)N2CCCCC2)c2c1CCC(NCCc1ccncc1)C2 (centres unmarked) [NUCC-390]
[1]
  blood brain barrier crossing: does not cross the blood brain barrier
  toxicity: non-toxic
[2]; determined by imaging, electrophysiological methods and lung ventilation
  time of recovery from neuroparalysis: shortens the time of recovery from neuroparalysis
[2]; venoms of three Bungarus species, Oxyuranus scutellatus, Micrurus nigrocinctus, Vipera ammodytes and V. aspis
  efficacy in mice injected with venoms: very effective

## CC1=C[C@@H](C2=C(C)[C@@H]3/C=C(\C)[C@@H](O)CC[C@@H]4C[C@@H](C)[C@@H](O4)/C(C)=C/CCC4=NCCC[C@@]43CC2)OC1=O [GYM-A]
[3]
  type of inhibition of α12βεδ nAChRs: competitive and reversible inhibitors

## C=CC1=C[C@@H]2[C@@H]3O[C@]4(C[C@H]5CCC[C@@]6(CC[C@@]7(O[C@@H](CC[C@@]7(C)O)CC(=C)CCCC7=NC[C@H](C)[C@@H](C)C[C@@]72CC1)O6)O5)C[C@@H](C)[C@@H](O)[C@H]3O4 [PnTX-G]
[3]
  type of inhibition of α12βεδ nAChRs: competitive and reversible inhibitors

## Nc1ccncc1N [3,4-DAP, 3,4-Diaminopyridine]
[4]
  reversal of neuromuscular block caused by the CiTX: completely reverses

## 5,6,11-trideoxyTTX
[5]
  toxicity (toxicity equivalency factors, TEFs): lower
[6]
  cross-reactivity (cross-reactivity factors, CRFs): lower

## CCCCCCCC/C=C\CCCCCCCC(=O)NCCc1c[nH]c2ccc(O)cc12 [OS, oleoyl serotonin]
[7]
  activity on other receptors and channels: does not show significant activity
mice
  effect on brain-related neurological functions: anxiolytic effect
CB2 receptors
  mode of action on CB2 receptors: non-competitive blocker
CB1 receptors
  mode of action on CB1 receptors: competitive antagonist

## 5,11-dideoxyTTX
[6]
  cross-reactivity (cross-reactivity factors, CRFs): lower

## C=C(C)[C@]12C[C@@H](C)[C@@]34O[C@](Cc5ccccc5)(O[C@@H]1[C@@H]3C=C(COC(=O)Cc1ccc(O)c(OC)c1)C[C@]1(O)C(=O)C(C)=C[C@@H]41)O2 [RTX, resiniferatoxin]
Human mitoTRPV1
  mitochondrial Ca2+ efflux: enhanced a Ca^2+ efflux from the mitochondria
  mitochondrial temperature: significant reduction in the mitochondrial temperature

## C=C1CCCC2=NC[C@H](C)[C@@H](C)C[C@@]23CCC(C(=O)O)=C[C@@H]3[C@@H]2O[C@]3(C[C@H]4CCC[C@@]5(CC[C@@]6(O[C@@H](CC[C@@]6(C)O)C1)O5)O4)C[C@@H](C)[C@@H](O)[C@H]2O3 [PnTX-A]
[3]
  type of inhibition of α12βεδ nAChRs: competitive and reversible inhibitors
